Test results published in patent US20160303138A1, “Combination Therapy Of Substituted Oxazolidinones” (Bayer Intellectual Property GMBH, priority 2006, published 2016).

Test system: arteriovenous shunt model in rats
Assay: Antithrombotic effect in an arteriovenous shunt model in rats
Format: in vivo
Description: a) Determination of the Antithrombotic Effect in an Arteriovenous Shunt Model in Rats Fasting male rats (strain: HSD CPB:WU) were anesthetized by intraperitoneal administration of a Rompun/Ketavet solution (12 mg/kg/50 mg/kg). Thrombi were generated in an arteriovenous shunt in which a thrombogenic thread was secured, based on the method described by P C Wong et al. (Wong […], Nguan O, Watson […]. […] For this purpose, the left jugular vein and the right carotid artery were exposed. An 8 cm-long polyethylene catheter (PE60, Becton-Dickinson), followed by a 6 cm-long Tygon tube (R-3606, ID 3.2 mm, Kronlab), which contained a roughened, thrombogenic nylon thread (60×0.26 mm, […]) made into a double loop, was secured in the artery. A 2 cm-long polyethylene catheter (PE60, Becton-Dickinson) was secured in the jugular vein and connected via a 6 cm-long polyethylene catheter (PE160, Becton-Dickinson) to the Tygon tube. The tubes were filled with physiological saline solution before the shunt was opened. The extracorporeal circulation was maintained for 15 minutes. The shunt was then removed, and the nylon thread with the thrombus was immediately weighed. The empty weight of nylon thread has been determined before the start of the test. The FXa inhibitor (such as rivaroxaban) was administered to the animals intravenously, and acetylsalicylic acid (ASA) and/or ADP receptor antagonist (such as clopidogrel) was administered orally by gavage before setting up the extracorporeal circulation.

[1] = doses [mg/kg]: Example 44 0.01 iv, Clopi + ASA 1 po + 3 po, triple 0.01 iv + 1 po + 3 po
[2] = doses [mg/kg]: Example 44 0.03 iv, Clopi + ASA 1 po + 3 po, triple 0.03 iv + 1 po + 3 po

For `O=C(NC[C@H]1CN(c2ccc(N3CCOCC3=O)cc2)C(=O)O1)c1ccc(Cl)s1` [Example 44, 5-Chloro-N-({(5S)-2-oxo-3-[4-(3-oxo-4-morpholinyl)phenyl]-1,3-oxazolidin-5-yl}methyl)-2-thiophencarboxamide], the “Antithrombotic effect (assessment in words)” value [1] was “No effect”, the “Thrombus reduction [%]” value [1] was 18% and the “Antithrombotic effect (assessment in words)” value [2] was “No effect”. For the same compound, the “Thrombus weight reduction [%]” value [2] was 20% and the “Antithrombotic effect, summary of Table 1 in words” value (doses of Table 1) was “ineffective”.
